Experimental findings from patent US4772590A, “Oily composition of aclarubicin or hydrochloride thereof” (priority 1983, dated 1988) are described below.

Values after ≈ are worked out from the molar mass of the structure shown. Structures can show the parent of a compound that is named as a salt. Where two headings read alike, the source gives them in different places.

Data set [1] in a line: solubility of aclarubicin or its hydrochloride in solvents and in fats and oils. The format is physicochemical. The following applies: for solubility: organic solvent or mixture.
Data set [2] is described as follows: solubilization of aclarubicin or aclarubicin hydro-chloride in fats and oils by acids. The format is physicochemical.

Take `CC[C@@]1(O)C[C@H](O[C@H]2C[C@H](N(C)C)[C@H](O[C@H]3C[C@H](O)[C@H](O[C@H]4CCC(=O)[C@H](C)O4)[C@H](C)O3)[C@H](C)O2)c2c(cc3c(c2O)C(=O)c2c(O)cccc2C3=O)[C@H]1C(=O)OC` [Aclarubicin hydrochloride]: the solubility in acetone result in data set [1] (acetone) was “freely soluble”. Further, the solubility in ether entry in data set [1] (ether) was “practically insoluble”. In addition, the “solubility in fats and oils” value in data set [1] (fats and oils) is on record as “very sparingly soluble”. Further, the solubility in methanol entry in data set [1] (methanol) is “freely soluble”. Moreover, the solubility in n-hexane entry in data set [1] (n-hexane) was “practically insoluble”. Besides, the solubility is ~0.004 mg/mL in data set [1] (olive oil, olive oil, aclarubicin hydrochloride, read-out: solubility in olive oil) and 0.016 mg/mL in data set [1] (sesame oil, sesame oil, aclarubicin hydrochloride, read-out: solubility in sesame oil). Also, the solubility in water entry in data set [1] (water) is listed as “freely soluble”.
On to `CC[C@@]1(O)C[C@H](O[C@H]2C[C@H](N(C)C)[C@H](O[C@H]3C[C@H](O)[C@H](O[C@H]4CCC(=O)[C@H](C)O4)[C@H](C)O3)[C@H](C)O2)c2c(cc3c(c2O)C(=O)c2c(O)cccc2C3=O)[C@H]1C(=O)OC` [Aclarubicin, methyl(1R, 2R, 4S)-2-ethyl-1,2,3,4,6,11-hexahydro-2,5,7-trihydroxy-6,11-dioxo-4-{[2,3,6-trideoxy-4-O-[2,6-dideoxy-4-O-((2R,6S)-tetrahydro-6-methyl-5-oxo-2H-pyran-2-yl)-α-1-lyxohexopyranocyl]-3-dimethylamino-α-1-lyxo-hexopyranocyl]oxy}-1-naphthacene carboxylate], for which the solubility came out at 10 mg/mL (≈ 12.3 mM) in data set [1] (olive oil, olive oil, aclarubicin, read-out: solubility in olive oil) and 10 mg/mL (≈ 12.3 mM) in data set [1] (sesame oil, sesame oil, aclarubicin, read-out: solubility in sesame oil).
On to `O=C(O)/C=C/C(=O)O` [fumaric acid], for which the “dissolution of polycarboxylic acid in fats and oils” value in data set [2] is “not dissolved in fats and oils”.
